Measurements: article PMC10404663 (The Journal of Biological Chemistry, 2023)
One block for each molecule: values may come before it.

Experiments:
[1] = target: truncated RocR (RocR^trunc, central domain) (Bacillus subtilis, UniProt P38022); conditions: 15 mM ATP, 15 mM MgCl2, pH 7.5, room temperature, no effector
[2] = target: T1, RocB (Bacillus subtilis, UniProt P39635); assay: coupled RocB-RocD assay, P5C-o-aminobenzaldehyde complex at […] nm; type: biochemical; conditions: 2 mM MnCl2, PBS, 25 °C, 1 µM RocD, 10 mM 2-oxoglutarate, 80 µM PLP
T1 sequence (P39635 1-566): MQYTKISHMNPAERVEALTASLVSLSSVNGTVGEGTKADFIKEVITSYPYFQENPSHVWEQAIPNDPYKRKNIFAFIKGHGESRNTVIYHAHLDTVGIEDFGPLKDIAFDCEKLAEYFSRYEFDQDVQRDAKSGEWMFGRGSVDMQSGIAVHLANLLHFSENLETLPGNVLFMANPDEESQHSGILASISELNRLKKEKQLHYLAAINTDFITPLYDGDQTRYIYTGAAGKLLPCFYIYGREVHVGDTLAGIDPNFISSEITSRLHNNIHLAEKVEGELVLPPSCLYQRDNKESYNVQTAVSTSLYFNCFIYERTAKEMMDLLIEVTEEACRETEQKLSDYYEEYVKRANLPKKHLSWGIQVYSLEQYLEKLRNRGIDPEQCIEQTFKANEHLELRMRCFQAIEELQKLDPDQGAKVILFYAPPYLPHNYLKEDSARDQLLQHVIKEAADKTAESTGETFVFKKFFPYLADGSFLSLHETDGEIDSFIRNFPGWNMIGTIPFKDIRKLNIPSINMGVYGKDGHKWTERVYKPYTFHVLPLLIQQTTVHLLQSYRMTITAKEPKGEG

[3] = target: the molecule itself; assay: dynamic light scattering

Molecule: Nc1ncnc2c1ncn2[C@@H]1O[C@H](COP(=O)(O)OP(=O)(O)OP(=O)(O)O)[C@@H](O)[C@H]1O [ATP]
kobs [1]: the truncated protein was active irrespective of the presence of potential effector molecules

KM [2]: 7.355 mM l^-1
Molecule: NC(=O)NCCC[C@H](N)C(=O)O [citrulline]

B1: RocR, transcription activator of the roc genes (6xHis-RocR) (natural protein, Bacillus subtilis, UniProt P38022 1-461, looked up)
chain: MVKDSEFLTLVFQSILDEIDVGLHVVDEHGNTIVYNNKMMQIEDMEKHDVLNKNLMDVFMFSKQQDSTLVQALQEGKTIKNVKQSYFNNKGQEITTINHTYPIVQDGKIRGAVEIAKDVTKLERLIRENMNKKGSTTYTFDSILGTSPAIQDVIENAKRATRTSSSVLLAGETGTGKELFAQSIHNGSDRSGGPFISQNCAALPDSLVESILFGTKKGAFTGAVDQPGLFEQAHGGTLLLDEINSLNLSLQAKLLRALQERKIRRIGSTKDTPIDVRIIATMNEDPIDAIAGERMRKDLYYRLSVVTLIIPPLRERKEDILLLASEFIQKNNHLFQMNVEHISDDVKQFFLSYDWPGNIRELEHMIEGAMNFMTDEQTITASHLPYQYRMKIKPADIPEPETPRHQPAADLKEKMESFEKYVIENVLRKHGHNISKAAQELGISRQSLQYRLKKFSHSSNE
stoichiometry N [3]: ~2
